Experimental data taken from patent US10251394B2, “Molecules having pesticidal utility, and intermediates, compositions, and processes, related thereto” (Dow AgroSciences LLC, priority 2016, dated 2019).

What was measured:
Assay type in all cases: in vivo
[1] = system: Cabbage Looper (Trichoplusia ni); assay: Bioassay on Cabbage Looper (CL), 128-well diet tray assay; conditions: Cabbage Looper, Table ABC, read-out: CL rating
Outline: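 Mortality after five to seven days at 25° C (14:10 photoperiod), averaged over eight wells per compound. Diet in each well carried 50 μg/cm^2 of dried test molecule and received one to five second-instar larvae.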

[2] = system: Yellow Fever Mosquito (Aedes aegypti); assay: Bioassay on Yellow Fever Mosquito (YFM) larvae, 96-well plate; conditions: Table ABC
Outline: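 About 1-day-old larvae in water with liver powder were added to wells holding compound from a 4000 ppm DMSO master diluted in 90:10 water:acetone. Plates covered and kept at room temperature for 3 days, then each well scored for mortality on a rating scale.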

[3] = system: Beet Armyworm (Spodoptera exigua); assay: Bioassay on Beet Armyworm (BAW), 128-well diet tray assay; conditions: Beet Armyworm, Table ABC, read-out: BAW rating
Outline: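 Percent mortality, averaged over eight wells, was scored after five to seven days at 25° C under 14:10 light-dark. Each well's diet carried 50 μg/cm^2 of test molecule applied in acetone-water (90:10) and dried before one to five second-instar larvae were added.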

Row | Structure (SMILES) | pest or weed control at 50 µg/cm2 [1] | YFM rating [2] | pest or weed control at 50 µg/cm2 [3]
1 | CN(CC(F)(F)F)C(=O)C1(NC(=O)c2ccc(/C(F)=C/C(c3cc(Cl)cc(Cl)c3)C(F)(F)F)cc2C(F)(F)F)CC1 (stereo not drawn) [F115, (Z)-4-(3-(3,5-Dichlorophenyl)-1,4,4,4-tetrafluorobut-1-en-1-yl)-N-(1-(methyl(2,2,2-trifluoroethyl)carbamoyl)cyclopropyl)-2-(trifluoromethyl)benzamide] | 50 to 100% | B (More than 0-Less than 80) | 50 to 100%
2 | CN(CC(F)(F)F)C(=O)CNC(=O)c1ccc(/C(F)=C/C(c2cc(Br)c(Cl)c(Br)c2)C(F)(F)F)cc1C(F)(F)F (stereo not drawn) [F77, (Z)-4-(3-(3,5-Dibromo-4-chlorophenyl)-1,4,4,4-tetrafluorobut-1-en-1-yl)-N-(2-(methyl(2,2,2-trifluoroethyl)amino)-2-oxoethyl)-2-(trifluoromethyl)benzamide] | 50 to 100% | A (80-100) | 50 to 100%
3 | CN(CC(F)(F)F)C(=O)C1(NC(=O)c2ccc(/C(F)=C/C(c3ccc(Cl)c(Cl)c3)C(F)(F)F)cc2C(F)(F)F)CC1 (stereo not drawn) [F120, (Z)-4-(3-(3,4-Dichlorophenyl)-1,4,4,4-tetrafluorobut-1-en-1-yl)-N-(1-(methyl(2,2,2-trifluoroethyl)carbamoyl)cyclopropyl)-2-(trifluoromethyl)benzamide] | 50 to 100% | B (More than 0-Less than 80) | 50 to 100%
4 | O=C(CNC(=O)c1ccc(/C(F)=C/C(c2cc(Br)cc(Br)c2)C(F)(F)F)cc1C(F)(F)F)NCC(F)(F)F (stereo not drawn) [F35, (Z)-4-(3-(3,5-Dibromophenyl)-1,4,4,4-tetrafluorobut-1-en-1-yl)-N-(2-oxo-2-((2,2,2-trifluoroethyl)amino)ethyl)-2-(trifluoromethyl)benzamide] | 50 to 100% | A (80-100) | 50 to 100%
5 | CN(CC(F)(F)F)C(=O)CNC(=O)c1ccc(/C(F)=C/C(c2cc(Cl)c(Br)c(Cl)c2)C(F)(F)F)cc1C(F)(F)F (stereo not drawn) [F75, (Z)-4-(3-(4-Bromo-3,5-dichlorophenyl)-1,4,4,4-tetrafluorobut-1-en-1-yl)-N-(2-(methyl(2,2,2-trifluoroethyl)amino)-2-oxoethyl)-2-(trifluoromethyl)benzamide] | 50 to 100% | A (80-100) | 50 to 100%
6 | C[C@@H](NC(=O)c1ccc(/C(F)=C/C(c2ccc(F)c(Cl)c2)C(F)(F)F)cc1C(F)(F)F)C(=O)N(C)CC(F)(F)F (stereo partly drawn) [PF8, 4-((Z)-3-(3-Chloro-4-fluorophenyl)-1,4,4,4-tetrafluorobut-1-en-1-yl)-N—((R)-1-(methyl(2,2,2-trifluoroethyl)amino)-1-oxopropan-2-yl)-2-(trifluoromethyl)benzamide] | 50 to 100% | B (More than 0-Less than 80) | 50 to 100%
7 | C[C@@H](NC(=O)c1ccc(/C(F)=C/C(c2cc(Br)cc(Br)c2)C(F)(F)F)cc1C(F)(F)F)C(=O)NCC(F)(F)F (stereo partly drawn) [F33, 4-((Z)-3-(3,5-Dibromophenyl)-1,4,4,4-tetrafluorobut-1-en-1-yl)-N—((R)-1-oxo-1-((2,2,2-trifluoroethyl)amino)propan-2-yl)-2-(trifluoromethyl)benzamide] | 50 to 100% | A (80-100) | 50 to 100%
8 | C=Cc1c(Cl)cc(C(/C=C(\F)c2ccc(C(=O)N[C@H](C)C(=O)NCC(F)(F)F)c(C(F)(F)F)c2)C(F)(F)F)cc1Cl (stereo partly drawn) [F52, 4-((Z)-3-(3,5-Dichloro-4-vinylphenyl)-1,4,4,4-tetrafluorobut-1-en-1-yl)-N—((R)-1-oxo-1-((2,2,2-trifluoroethyl)amino)propan-2-yl)-2-(trifluoromethyl)benzamide] | 50 to 100% | A (80-100) | 50 to 100%
9 | C[C@@H](NC(=O)c1ccc(/C(F)=C/C(c2cc(Cl)cc(Br)c2)C(F)(F)F)cc1C(F)(F)F)C(=O)N(C)CC(F)(F)F (stereo partly drawn) [PF31, 4-((Z)-3-(3-Bromo-5-chlorophenyl)-1,4,4,4-tetrafluorobut-1-en-1-yl)-N—((R)-1-(methyl(2,2,2-trifluoroethyl)amino)-1-oxopropan-2-yl)-2-(trifluoromethyl)benzamide] | 50 to 100% | B (More than 0-Less than 80) | 50 to 100%
10 | CCc1ccc(C(/C=C(\F)c2ccc(C(=O)N[C@H](C)C(=O)NCC(F)(F)F)c(C(F)(F)F)c2)C(F)(F)F)cc1Cl (stereo partly drawn) [F164, 4-((Z)-3-(3-Chloro-4-ethylphenyl)-1,4,4,4-tetrafluorobut-1-en-1-yl)-N—((R)-1-oxo-1-((2,2,2-trifluoroethyl)amino)propan-2-yl)-2-(trifluoromethyl)benzamide] | 50 to 100% | B (More than 0-Less than 80) | 50 to 100%
11 | O=C(NC1(C(=O)NCC(F)(F)F)CC1)c1ccc(/C(F)=C/C(c2ccc(Cl)c(F)c2)C(F)(F)F)cc1C(F)(F)F (stereo not drawn) [F136, (Z)-4-(3-(4-Chloro-3-fluorophenyl)-1,4,4,4-tetrafluorobut-1-en-1-yl)-N-(1-((2,2,2-trifluoroethyl)carbamoyl)cyclopropyl)-2-(trifluoromethyl)benzamide] | 50 to 100% | B (More than 0-Less than 80) | 50 to 100%
12 | O=C(CNC(=O)c1ccc(/C(F)=C/C(c2cc(Cl)c(F)c(Cl)c2)C(F)(F)F)cc1C(F)(F)F)NCC(F)(F)F (stereo not drawn) [F38, (Z)-4-(3-(3,5-Dichloro-4-fluorophenyl)-1,4,4,4-tetrafluorobut-1-en-1-yl)-N-(2-oxo-2-((2,2,2-trifluoroethyl)amino)ethyl)-2-(trifluoromethyl)benzamide] | 50 to 100% | A (80-100) | 50 to 100%
13 | CN(CC(F)(F)F)C(=O)C1(NC(=O)c2ccc(/C(F)=C/C(c3ccc(Cl)c(F)c3)C(F)(F)F)cc2C(F)(F)F)CC1 (stereo not drawn) [PF22, (Z)-4-(3-(4-Chloro-3-fluorophenyl)-1,4,4,4-tetrafluorobut-1-en-1-yl)-N-(1-(methyl(2,2,2-trifluoroethyl)carbamoyl)cyclopropyl)-2-(trifluoromethyl)benzamide] | 50 to 100% | B (More than 0-Less than 80) | 50 to 100%
14 | C[C@@H](NC(=O)c1ccc(/C(F)=C/C(c2cc(Br)c(Cl)c(Br)c2)C(F)(F)F)cc1C(F)(F)F)C(=O)N(C)CC(F)(F)F (stereo partly drawn) [F78, 4-((Z)-3-(3,5-Dibromo-4-chlorophenyl)-1,4,4,4-tetrafluorobut-1-en-1-yl)-N—((R)-1-(methyl(2,2,2-trifluoroethyl)amino)-1-oxopropan-2-yl)-2-(trifluoromethyl)benzamide] | 50 to 100% | A (80-100) | 50 to 100%
15 | O=C(CNC(=O)c1ccc(/C(F)=C/C(c2cc(Cl)cc(Cl)c2)C(F)(F)F)cc1C(F)(F)F)NCC(F)(F)F (stereo not drawn) [F40, (Z)-4-(3-(3,5-Dichlorophenyl)-1,4,4,4-tetrafluorobut-1-en-1-yl)-N-(2-oxo-2-((2,2,2-trifluoroethyl)amino)ethyl)-2-(trifluoromethyl)benzamide] | 50 to 100% | A (80-100) | 50 to 100%
16 | CN(CC(F)(F)F)C(=O)CNC(=O)c1ccc(/C(F)=C/C(c2cc(Cl)c(F)c(Cl)c2)C(F)(F)F)cc1C(F)(F)F (stereo not drawn) [F82, (Z)-4-(3-(3,5-Dichloro-4-fluorophenyl)-1,4,4,4-tetrafluorobut-1-en-1-yl)-N-(2-(methyl(2,2,2-trifluoroethyl)amino)-2-oxoethyl)-2-(trifluoromethyl)benzamide] | 50 to 100% | A (80-100) | 50 to 100%
17 | CN(CC(F)(F)F)C(=O)CNC(=O)c1ccc(/C(F)=C/C(c2ccc(Cl)c(F)c2)C(F)(F)F)cc1C(F)(F)F (stereo not drawn) [PF18, (Z)-4-(3-(4-Chloro-3-fluorophenyl)-1,4,4,4-tetrafluorobut-1-en-1-yl)-N-(2-(methyl(2,2,2-trifluoroethyl)amino)-2-oxoethyl)-2-(trifluoromethyl)benzamide] | 50 to 100% | B (More than 0-Less than 80) | 50 to 100%
18 | CN(CC(F)(F)F)C(=O)C1(NC(=O)c2ccc(/C(F)=C/C(c3ccc(Br)c(Br)c3)C(F)(F)F)cc2C(F)(F)F)CC1 (stereo not drawn) [F130, (Z)-4-(3-(3,4-Dibromophenyl)-1,4,4,4-tetrafluorobut-1-en-1-yl)-N-(1-(methyl(2,2,2-trifluoroethyl)carbamoyl)cyclopropyl)-2-(trifluoromethyl)benzamide] | 50 to 100% | A (80-100) | 50 to 100%
19 | C[C@@H](NC(=O)c1ccc(/C(F)=C/C(c2ccc(Br)c(Br)c2)C(F)(F)F)cc1C(F)(F)F)C(=O)N(C)CC(F)(F)F (stereo partly drawn) [PF2, 4-((Z)-3-(3,4-Dibromophenyl)-1,4,4,4-tetrafluoro-but-1-en-1-yl)-N—((R)-1-(methyl(2,2,2-trifluoroethyl)amino)-1-oxopropan-2-yl)-2-(trifluoromethyl)benzamide] | 50 to 100% | A (80-100) | 50 to 100%
20 | C[C@@H](NC(=O)c1ccc(/C(F)=C/C(c2cc(Cl)c(F)c(Cl)c2)C(F)(F)F)cc1C(F)(F)F)C(=O)N(C)CC(F)(F)F (stereo partly drawn) [F81, 4-((Z)-3-(3,5-Dichloro-4-fluorophenyl)-1,4,4,4-tetrafluorobut-1-en-1-yl)-N—((R)-1-(methyl(2,2,2-trifluoroethyl)amino)-1-oxopropan-2-yl)-2-(trifluoromethyl)benzamide] | 50 to 100% | A (80-100) | 50 to 100%
